Assays:
[1] = tested on: CD8+ T-cells of healthy HLA-A*02 donors; assay: In vitro immunogenicity: T-cell priming with aAPCs loaded with peptide/MHC and anti-CD28, multimer staining; assay type: cell-based, human; settings: HLA-A*02 restricted peptides, among evaluable wells, Table 10B
Excerpt: In order to obtain information regarding the immunogenicity of the TUMAPs of the present invention, the inventors performed investigations using an in vitro T-cell priming assay based on repeated stimulations of CD8+ T-cells with artificial antigen presenting cells (aAPCs) loaded with peptide/MHC complexes and anti-CD28 antibody.
In order to perform in vitro stimulations by artificial antigen presenting cells loaded with peptide-MHC complex (pMHC) and anti-CD28 antibody, the inventors first isolated CD8+ T-cells from fresh HLA-A*02 leukapheresis products via positive selection using CD8 microbeads (Miltenyi Biotec, Bergisch-Gladbach, Germany) of healthy donors obtained from the University clinics Mannheim, Germany, after informed consent.
PBMCs and isolated CD8+ lymphocytes were incubated in T-cell medium (TCM) until use consisting of RPMI-Glutamax (Invitrogen, Karlsruhe, Germany) supplemented with 10% heat inactivated human AB serum (PAN-Biotech, Aidenbach, Germany), 100 U/ml Penicillin/100 μg/ml Streptomycin (Cambrex, Cologne, Germany), 1 mM sodium pyruvate (CC Pro, Oberdorla, Germany), 20 μg/ml Gentamycin (Cambrex). 2.5 ng/ml IL-7 (PromoCell, Heidelberg, Germany) and 10 U/ml IL-2 (Novartis Pharma, Nürnberg, Germany) were also added to the TCM at this step.
Generation of pMHC/anti-CD28 coated beads, T-cell stimulations and readout was performed in a highly defined in vitro system using four different pMHC molecules per stimulation condition and 8 different pMHC molecules per readout condition.
The purified co-stimulatory mouse IgG2a anti human CD28 Ab 9.3 (Jung et al., 1987) was chemically biotinylated using Sulfo-N-hydroxysuccinimidobiotin as recommended by the manufacturer (Perbio, Bonn, Germany). Beads used were 5.6 μm diameter streptavidin coated polystyrene particles (Bangs Laboratories, Illinois, USA).
800.000 beads/200 μl were coated in 96-well plates in the presence of 4×12.5 ng different biotin-pMHC, washed and 600 ng biotin anti-CD28 were added subsequently in a volume of 200 μl. Stimulations were initiated in 96-well plates by co-incubating 1×10^6 CD8+ T-cells with 2×10^6 washed coated beads in 200 μl TCM supplemented with 5 ng/ml IL-12 (PromoCell) for 3 days at 37° C. Half of the medium was then exchanged by fresh TCM supplemented with 80 U/ml IL-2 and incubating was continued for 4 days at 37° C. This stimulation cycle was performed for a total of three times. For the pMHC multimer readout using 8 different pMHC molecules per condition, a two-dimensional combinatorial coding approach was used as previously described (Andersen et al., 2012) with minor modifications encompassing coupling to 5 different fluorochromes. Finally, multimeric analyses were performed by staining the cells with Live/dead near IR dye (Invitrogen, Karlsruhe, Germany), CD8-FITC antibody clone SK1 (BD, Heidelberg, Germany) and fluorescent pMHC multimers. For analysis, a BD LSRII SORP cytometer equipped with appropriate lasers and filters was used. Peptide specific cells were calculated as percentage of total CD8+ cells. Evaluation of multimeric analysis was done using the FlowJo software (Tree Star, Oregon, USA). In vitro priming of specific multimer+CD8+ lymphocytes was detected by comparing to negative control stimulations.

HLA-A*02:01 = HLA-A*02:01 (Homo sapiens, UniProt P04439, D140Y/D185E/D98H/E176V/E277Q/G131W/G231S/I119V/I121R/I166T/I218V/L300P/L318F/N151K/N90K/P208A/P217A/Q86G/Q94H/R138H/R169H/T345S); assay: MHC binding assay (UV-ligand exchange, beta2m ELISA, peptide exchange yield); settings: binding to HLA-A*02:01, β2m ELISA
How it was run: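 Peptide–MHC complexes formed by UV-ligand exchange, cleaving a UV-sensitive peptide so the test peptide can bind. Exchange yield measured by ELISA: complexes captured on streptavidin-coated wells, diluted 100-fold, detected with HRP anti-β2m (1 h, 37 °C) and TMB at 450 nm, against refolded HLA-A*02:01/MLA-001 standards (15-500 ng/ml).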

Substance: 9 (ILDDHLSRV; listed as Homo sapiens) [compound 9]
- Wells positive [%] [1]: “+” (<20% = +)
- Peptide exchange (MHC class I binding score, peptide exchange yield) (HLA-A*02:01): “++” (≥20% = ++)

Substance: 10 (RMYNKIFAI; listed as Homo sapiens) [compound 10]
- Wells positive [%] [1]: “++++” (>=70% = ++++)
- Peptide exchange (MHC class I binding score, peptide exchange yield) (HLA-A*02:01): “+++” (≥50 = +++)

Substance: 11 (YLFEKTFNM; listed as Homo sapiens) [compound 11]
- Wells positive [%] [1]: “+” (<20% = +)
- Peptide exchange (MHC class I binding score, peptide exchange yield) (HLA-A*02:01): “+++” (≥50 = +++)

Substance: 12 (ALVQGILERV; listed as Homo sapiens) [compound 12]
- Wells positive [%] [1]: “++++” (>=70% = ++++)
- Peptide exchange (MHC class I binding score, peptide exchange yield) (HLA-A*02:01): “+++” (≥50 = +++)

Substance: 18 (FLSSLKGGLL; listed as Homo sapiens) [compound 18]
- Wells positive [%] [1]: “+” (<20% = +)
- Peptide exchange (MHC class I binding score, peptide exchange yield) (HLA-A*02:01): “+++” (≥50 = +++)

Substance: 21 (VLIDHRWVL; listed as Homo sapiens) [compound 21]
- Wells positive [%] [1]: “+” (<20% = +)
- Peptide exchange (MHC class I binding score, peptide exchange yield) (HLA-A*02:01): “+++” (≥50 = +++)

Substance: 37 (GLFAGLGGAGA; listed as Homo sapiens) [compound 37]
- Wells positive [%] [1]: “+” (<20% = +)
- Peptide exchange (MHC class I binding score, peptide exchange yield) (HLA-A*02:01): “+++” (≥50 = +++)

Substance: 38 (SLAPTPVSA; listed as Homo sapiens) [compound 38]
- Wells positive [%] [1]: “+” (<20% = +)
- Peptide exchange (MHC class I binding score, peptide exchange yield) (HLA-A*02:01): “++” (≥20% = ++)

Substance: 42 (SILDDSFKL; listed as Homo sapiens) [compound 42]
- Wells positive [%] [1]: “+” (<20% = +)
- Peptide exchange (MHC class I binding score, peptide exchange yield) (HLA-A*02:01): “++++” (≥75% = ++++)

Substance: 47 (KLYERCEVV; listed as Homo sapiens) [compound 47]
- Wells positive [%] [1]: “+” (<20% = +)
- Peptide exchange (MHC class I binding score, peptide exchange yield) (HLA-A*02:01): “++” (≥20% = ++)

Substance: 59 (LLTDNVVKL; listed as Homo sapiens) [compound 59]
- Wells positive [%] [1]: “+” (<20% = +)
- Peptide exchange (MHC class I binding score, peptide exchange yield) (HLA-A*02:01): “+++” (≥50 = +++)

Substance: 64 (KTLGKLWRL; listed as Homo sapiens) [compound 64]
- Wells positive [%] [1]: “++++” (>=70% = ++++)
- Peptide exchange (MHC class I binding score, peptide exchange yield) (HLA-A*02:01): “++” (≥20% = ++)

Substance: 123 (KTLERSYLL; listed as Homo sapiens) [compound 123]
- Wells positive [%] [1]: “+” (<20% = +)
- Peptide exchange (MHC class I binding score, peptide exchange yield) (HLA-A*02:01): “++” (≥20% = ++)

Substance: 124 (RVLPPSALQSV; listed as Homo sapiens) [compound 124]
- Wells positive [%] [1]: “+” (<20% = +)
- Peptide exchange (MHC class I binding score, peptide exchange yield) (HLA-A*02:01): “+++” (≥50 = +++)

Substance: 127 (RLAELTVDEFLA; listed as Homo sapiens) [compound 127]
- Wells positive [%] [1]: “+” (<20% = +)
- Peptide exchange (MHC class I binding score, peptide exchange yield) (HLA-A*02:01): “+++” (≥50 = +++)

Substance: 132 (ALLNAILHSA; listed as Homo sapiens) [compound 132]
- Wells positive [%] [1]: “+” (<20% = +)
- Peptide exchange (MHC class I binding score, peptide exchange yield) (HLA-A*02:01): “+++” (≥50 = +++)

Substance: 133 (RTFEKIEEV; listed as Homo sapiens) [compound 133]
- Wells positive [%] [1]: “+” (<20% = +)
- Peptide exchange (MHC class I binding score, peptide exchange yield) (HLA-A*02:01): “++” (≥20% = ++)

Substance: 141 (AVIEHLERL; listed as Homo sapiens) [compound 141]
- Wells positive [%] [1]: “+” (<20% = +)
- Peptide exchange (MHC class I binding score, peptide exchange yield) (HLA-A*02:01): “++++” (≥75% = ++++)

Substance: 142 (SLVQRVETI; listed as Homo sapiens) [compound 142]
- Wells positive [%] [1]: “+” (<20% = +)
- Peptide exchange (MHC class I binding score, peptide exchange yield) (HLA-A*02:01): “+++” (≥50 = +++)

Substance: 150 (RLADLEALKV; listed as Homo sapiens) [compound 150]
- Wells positive [%] [1]: “++” (20%-49% = ++)
- Peptide exchange (MHC class I binding score, peptide exchange yield) (HLA-A*02:01): “+++” (≥50 = +++)
